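Each compound was tested at five concentrations against cells in 96-well plates for 48 hours. GI50 marks 50% less growth.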 Active and inactive are the calls of the source. No stated cut-off is given here; in the data, active = GI50 up to about 1.1 µM and inactive = higher.
What was measured:
Assay in all cases: growth of human tumour cells (NCI), 48 h
SN12C = tested on: SN12C
NCI-H23 = tested on: NCI-H23
K562 = tested on: K562
786-0 = tested on: 786-0
SR = tested on: SR
SNB-19 = tested on: SNB-19
CAKI-1 = tested on: CAKI-1
HCC 2998 = tested on: HCC 2998
EKVX = tested on: EKVX
NCI-H522 = tested on: NCI-H522
SF-539 = tested on: SF-539
MOLT-4 = tested on: MOLT-4
ACHN = tested on: ACHN
HCT-15 = tested on: HCT-15
COLO 205 = tested on: COLO 205
OVCAR-8 = tested on: OVCAR-8
HT-29 = tested on: HT-29
Malme-3M = tested on: Malme-3M
NCI-H226 = tested on: NCI-H226
DMS-114 = tested on: DMS-114
A549 = tested on: A549
U-251 = tested on: U-251
SK-MEL-2 = tested on: SK-MEL-2
XF498 = tested on: XF498
LXFL 529 = tested on: LXFL 529
SF-295 = tested on: SF-295
SF-268 = tested on: SF-268
TK-10 = tested on: TK-10
RXF 393 = tested on: RXF 393
HOP-92 = tested on: HOP-92
RPMI-8226 = tested on: RPMI-8226
HCT-116 = tested on: HCT-116
SK-MEL-28 = tested on: SK-MEL-28
IGROV-1 = tested on: IGROV-1
DLD-1 = tested on: DLD-1
OVCAR-4 = tested on: OVCAR-4
SNB-75 = tested on: SNB-75
KM-20L2 = tested on: KM-20L2
KM12 = tested on: KM12
SW-620 = tested on: SW-620
M19-MEL = tested on: M19-MEL
M14 = tested on: M14
CCRF-CEM = tested on: CCRF-CEM
SK-MEL-5 = tested on: SK-MEL-5
OVCAR-3 = tested on: OVCAR-3
HOP-18 = tested on: HOP-18
A498 = tested on: A498
DMS-273 = tested on: DMS-273
NCI-H460 = tested on: NCI-H460
UO-31 = tested on: UO-31
UACC-257 = tested on: UACC-257
SK-OV-3 = tested on: SK-OV-3
HL-60 = tested on: HL-60
LOX IMVI = tested on: LOX IMVI
HOP-62 = tested on: HOP-62
OVCAR-5 = tested on: OVCAR-5
UACC-62 = tested on: UACC-62
RXF 631 = tested on: RXF 631
SNB-78 = tested on: SNB-78

## COc1ccc2[nH]c3c(C)cc([N+](=O)[O-])c(C)c3c2c1
SN12C
  GI50: 31.3 µM (inactive)
NCI-H23
  GI50: 22.6 µM (inactive)
K562
  GI50: 18.4 µM (inactive)
786-0
  GI50: 21.8 µM (inactive)
SR
  GI50: 17.7 µM (inactive)
SNB-19
  GI50: 37.8 µM (inactive)
CAKI-1
  GI50: 19.4 µM (inactive)
HCC 2998
  GI50: 25.4 µM (inactive)
EKVX
  GI50: 31 µM (inactive)
NCI-H522
  GI50: 17.1 µM (inactive)
SF-539
  GI50: 23.7 µM (inactive)
MOLT-4
  GI50: 20.5 µM (inactive)
ACHN
  GI50: 22 µM (inactive)
HCT-15
  GI50: 26.6 µM
COLO 205
  GI50: 26.3 µM (inactive)
OVCAR-8
  GI50: 23 µM (inactive)
HT-29
  GI50: 28.5 µM (inactive)
Malme-3M
  GI50: 28.6 µM (inactive)
NCI-H226
  GI50: 43.7 µM (inactive)
DMS-114
  GI50: 23.3 µM (inactive)
A549
  GI50: 25 µM (inactive)
U-251
  GI50: 22.9 µM (inactive)
SK-MEL-2
  GI50: 20.6 µM (inactive)
XF498
  GI50: 34.2 µM (inactive)
LXFL 529
  GI50: 25.5 µM (inactive)
SF-295
  GI50: 41.4 µM (inactive)
SF-268
  GI50: 37.3 µM (inactive)
TK-10
  GI50: 27.1 µM (inactive)
RXF 393
  GI50: 19 µM (inactive)
HOP-92
  GI50: 28.4 µM (inactive)
RPMI-8226
  GI50: 17.7 µM (inactive)
HCT-116
  GI50: 17.9 µM (inactive)
SK-MEL-28
  GI50: 24.7 µM (inactive)
IGROV-1
  GI50: 27.4 µM (inactive)
DLD-1
  GI50: 26.6 µM (inactive)
OVCAR-4
  GI50: 33 µM (inactive)
SNB-75
  GI50: 20.4 µM (inactive)
KM-20L2
  GI50: 47.5 µM (inactive)
KM12
  GI50: 19.7 µM (inactive)
SW-620
  GI50: 21.7 µM (inactive)
M19-MEL
  GI50: 21.9 µM (inactive)
M14
  GI50: 21.1 µM (inactive)
CCRF-CEM
  GI50: 17.9 µM (inactive)
SK-MEL-5
  GI50: 25.6 µM (inactive)
OVCAR-3
  GI50: 37.8 µM (inactive)
HOP-18
  GI50: 26.1 µM (inactive)
A498
  GI50: 21.6 µM (inactive)
DMS-273
  GI50: 13.6 µM (inactive)
NCI-H460
  GI50: 15.5 µM (inactive)
UO-31
  GI50: 21.6 µM (inactive)
UACC-257
  GI50: 31.2 µM (inactive)
SK-OV-3
  GI50: 28.2 µM (inactive)
HL-60
  GI50: 16.6 µM (inactive)

## CC12CCC3=C(CSC4=C3CSc3ccccc34)C1=CCCC2=O (stereo not given)
SN12C
  GI50: > 100 µM (inactive)
NCI-H23
  GI50: > 100 µM (inactive)
K562
  GI50: 40.8 µM (inactive)
SR
  GI50: 65.8 µM (inactive)
SNB-19
  GI50: 66.5 µM (inactive)
CAKI-1
  GI50: 35.1 µM (inactive)
HCC 2998
  GI50: 47.4 µM (inactive)
EKVX
  GI50: 42.5 µM (inactive)
NCI-H522
  GI50: 27.4 µM (inactive)
SF-539
  GI50: 75.7 µM (inactive)
MOLT-4
  GI50: 16.8 µM (inactive)
ACHN
  GI50: 69.2 µM (inactive)
HCT-15
  GI50: 29.8 µM
LOX IMVI
  GI50: 69.8 µM (inactive)
COLO 205
  GI50: 20.3 µM (inactive)
OVCAR-8
  GI50: 78.5 µM (inactive)
HT-29
  GI50: 34.1 µM (inactive)
Malme-3M
  GI50: 31 µM (inactive)
NCI-H226
  GI50: 64.3 µM (inactive)
DMS-114
  GI50: 69.5 µM (inactive)
A549
  GI50: 36.5 µM (inactive)
U-251
  GI50: 42.8 µM (inactive)
SK-MEL-2
  GI50: 64.3 µM (inactive)
XF498
  GI50: 19.7 µM (inactive)
LXFL 529
  GI50: 37.1 µM (inactive)
SF-268
  GI50: > 100 µM (inactive)
TK-10
  GI50: 38 µM (inactive)
RXF 393
  GI50: 40.2 µM (inactive)
RPMI-8226
  GI50: 61.2 µM (inactive)
HCT-116
  GI50: 58.3 µM (inactive)
SK-MEL-28
  GI50: > 100 µM (inactive)
DLD-1
  GI50: 29.4 µM (inactive)
OVCAR-4
  GI50: 14.8 µM (inactive)
KM-20L2
  GI50: 51.6 µM (inactive)
KM12
  GI50: 54.2 µM (inactive)
SW-620
  GI50: > 100 µM (inactive)
M19-MEL
  GI50: 86.9 µM (inactive)
M14
  GI50: 27.8 µM (inactive)
HOP-62
  GI50: 20.4 µM (inactive)
OVCAR-5
  GI50: 37.8 µM (inactive)
CCRF-CEM
  GI50: 69.8 µM (inactive)
SK-MEL-5
  GI50: 17.4 µM (inactive)
OVCAR-3
  GI50: 13.5 µM (inactive)
HOP-18
  GI50: 39.3 µM (inactive)
DMS-273
  GI50: 82.8 µM (inactive)
NCI-H460
  GI50: 45.2 µM (inactive)
UO-31
  GI50: 70.1 µM (inactive)
HL-60
  GI50: 73.1 µM (inactive)

## CC1CC2C3CC(F)C4=CC(=O)C=CC4(C)C3(F)C(O)CC2(C)C1(O)C(=O)CO (stereo not given)
NCI-H23
  GI50: > 100 µM (inactive)
K562
  GI50: > 100 µM (inactive)
786-0
  GI50: > 100 µM (inactive)
UACC-62
  GI50: > 100 µM (inactive)
SR
  GI50: > 100 µM (inactive)
SNB-19
  GI50: > 100 µM (inactive)
CAKI-1
  GI50: > 100 µM (inactive)
RXF 631
  GI50: > 100 µM (inactive)
HCC 2998
  GI50: > 100 µM (inactive)
EKVX
  GI50: > 100 µM (inactive)
NCI-H522
  GI50: > 100 µM (inactive)
SF-539
  GI50: > 100 µM (inactive)
MOLT-4
  GI50: > 100 µM (inactive)
ACHN
  GI50: > 100 µM (inactive)
HCT-15
  GI50: > 100 µM
LOX IMVI
  GI50: > 100 µM (inactive)
COLO 205
  GI50: > 100 µM (inactive)
HT-29
  GI50: > 100 µM (inactive)
Malme-3M
  GI50: > 100 µM (inactive)
NCI-H226
  GI50: > 100 µM (inactive)
DMS-114
  GI50: > 100 µM (inactive)
A549
  GI50: > 100 µM (inactive)
U-251
  GI50: > 100 µM (inactive)
SK-MEL-2
  GI50: > 100 µM (inactive)
XF498
  GI50: > 100 µM (inactive)
SF-295
  GI50: > 100 µM (inactive)
SF-268
  GI50: > 100 µM (inactive)
TK-10
  GI50: > 100 µM (inactive)
RXF 393
  GI50: > 100 µM (inactive)
HOP-92
  GI50: > 100 µM (inactive)
RPMI-8226
  GI50: > 100 µM (inactive)
HCT-116
  GI50: > 100 µM (inactive)
SK-MEL-28
  GI50: > 100 µM (inactive)
SNB-78
  GI50: > 100 µM (inactive)
IGROV-1
  GI50: > 100 µM (inactive)
DLD-1
  GI50: > 100 µM (inactive)
OVCAR-4
  GI50: > 100 µM (inactive)
SNB-75
  GI50: > 100 µM (inactive)
KM-20L2
  GI50: > 100 µM (inactive)
KM12
  GI50: > 100 µM (inactive)
SW-620
  GI50: > 100 µM (inactive)
M19-MEL
  GI50: > 100 µM (inactive)
M14
  GI50: > 100 µM (inactive)
HOP-62
  GI50: > 100 µM (inactive)
OVCAR-5
  GI50: > 10 µM (inactive)
CCRF-CEM
  GI50: 0.0112 µM (active)
SK-MEL-5
  GI50: > 100 µM (inactive)
OVCAR-3
  GI50: > 100 µM (inactive)
DMS-273
  GI50: > 100 µM (inactive)
NCI-H460
  GI50: > 100 µM (inactive)
UO-31
  GI50: > 100 µM (inactive)
UACC-257
  GI50: > 100 µM (inactive)
SK-OV-3
  GI50: < 0.01 µM (active)
HL-60
  GI50: > 100 µM (inactive)

Source: ChEMBL document CHEMBL1201862, “PubChem BioAssay data set” (2004)
